Measurements published in US5130119A, “Method of using fluorosubstituted benzene derivatives in F-NMR imaging” (Schering Aktiengesellschaft, priority 1988, dated 1992).
Values joined by “and” are separate entries in the source; they are usually repeats but may differ in a detail not shown here. Equal entries are not always repeated.

Key:
[1] = test system: kidney, bladder and ureter; test: 19F imaging; type: in vivo, rat
Source text: FIG. 4 relates to Example 50 and is the projection ^19 F image of the kidney, bladder, and ureters of a rat administered 0.75 mmol/kg of 5-[N-4-fluoro-2-trifluoromethylphenyl)sulfamoyl] isophthalic acid and 0.2 mmol/kg GdDTPA.
Production of the solution of the fluorinated substance as well as preparation of the animal take place as in taking the ^19 F NMR spectra.
The test animal is placed in the measuring coil and the fluorinated compound is applied in a dose of 0.75 mmol/kg of body weight by the tail vein in 1 minute. Then an intravenous application takes place, also by needle in the tail vein, of GdDTPA in a dose of 0.2 mmol/kg. Making of the image takes place with a projection spin echo sequence and the parameters: TR=28 msec (repetition rate), TE=4 msec (echo time), NEX=256 (number of averagings); the total measuring time is 15 minutes.

[2] = test system: rat (whole animal; bladder area); test: in vivo 19F NMR spectroscopic pH determination; set-up: species or system female rats of the Wistar-Han-Schering strain (SPF); settings: 0.5 mmol/kg i.v.
Method: Performance of in vivo ^19 F NMR spectroscopic pH determinations with 5-[N-(4-fluoro-2-trifluoromethylphenyl)sulfamoyl]-isophthalic acid (Example 13)
An aqueous solution of the fluorocompound is produced with a concentration of 0.4 mol/1. The pH of the aqueous solution is adjusted with NaOH to 7.2.
The NMR spectra are measured with an animal experimental nuclear spin tomograph (General Electric), which operates with a field strength of 2 tesla (corresponds to an RF resonance frequency of 80.5 MHz). The signals can be picked up by the whole-body coil (animal size) or surface coils.
The experiments are performed with female rats of the Wistar-Han-Schering strain (SPF) with a body weight of 200 g. The animal is anesthetized by an intramuscular injection of Rompun/Ketavet (1:1, 1 ml/kg of body weight). Then a butterfly needle is placed in the animal in one of the tail veins. The animal is placed in a whole-body coil and the latter is tuned to the fluororesonance frequency. The spectrum of the entire animal is developed with this coil, i.e., no volume-selective spectroscopy is performed.
The fluorinated compound is applied intravenously within 30 seconds in a dose of 0.5 mmol/kg and an F spectrum is registered within 4 minutes.
After measurement of the total animal, the animal was removed from the coil and positioned on a surface coil so that the bladder area was picked up by the coil. […] The intense signals originate from the fluorocompound in the bladder. The chemical shift in the aromatic range is identical with the deep-field signal of the aromatic range in FIG. 2.

[3] = intravenous acute tolerability (LD50) on the mouse; settings: in vivo
Method: Thus, for example, an intravenous acute tolerability (LD50) of 4 mmol/kg of body weight was determined on the mouse for 5-[N-(4-fluoro-2-trifluoromethylphenyl)sulfamoyl)-isophthalic acid (Example 13).

For O=C(O)c1cc(C(=O)O)cc(S(=O)(=O)Nc2ccc(F)cc2C(F)(F)F)c1 [Example 13, 5-[N-(4-fluoro-2-trifluoromethylphenyl)sulfamoyl]-isophthalic acid], the “excretion (imaging)” value ([1]; 0.75 mmol/kg i.v. plus GdDTPA 0.2 mmol/kg) was “renally excreted”, the 19F image ([1]; 0.75 mmol/kg i.v. plus GdDTPA 0.2 mmol/kg i.v., projection spin echo, 15 minutes) was “shows the kidney, bladder and ureter” and the “F concentration in kidney, bladder and ureter” value ([1]; 0.75 mmol/kg i.v., reabsorption of water in these areas) was “high F concentration”. For the same molecule, the “pH calculated from the chemical shifts (2 environments)” value ([2]; 5 minutes after application, whole rat, 2 tesla, CF3 reference signal) was 6.5 and 7.7, the “19F signal from the alkaline range” value ([2]; 50 minutes after application) was “almost disappeared” and the “19F signal in the acid range” value ([2]; 50 minutes after application) was “split into several signals”. The “location of lowest pH in the animal” value ([2]; bladder area, surface coil, 20 minutes measuring time) was “the lowest (most acid) pH is in the bladder”, the excretion ([2]; bladder area, surface coil, 70 minutes after application, 20 minutes measuring time) was “renally excreted” and the “distribution at the beginning of the experiment” value ([2]; whole rat) was “found only in the blood”. For the same molecule, the “distribution 50 minutes after application” value ([2]; whole rat, 50 minutes) was “distributed extravascularly” and the LD50 [3] was 4000 µmol/kg.
